The values below come from patent US12404294B2, “Glycolipopeptide biosurfactants” (Croda International Plc, priority 2016, dated 2025).

A word on the IC50: it is the point on the concentration scale where inhibition reaches its midpoint. A lower IC50 goes with greater potency in that assay.

≈ marks a conversion by molar mass, not a printed value.

Data set [1] is described as follows: Aqueous solubility (remark). As to conditions: in words. It is filed as physicochemical.
Data set [2] is described as follows: Critical micelle concentration and surface tension of water, Du Nouy method (Kibron Delta-8 microtensiometer). It is filed as physicochemical. As to conditions: for CMC: degassed deionized water, 24-25° C.; for Minimum Surface Tension: surface tension of water at CMC (water 72 mN/m). As to the method:
As summarized in Table 1, the critical micelle concentrations (CMCs) of NB-RLP1006, NB-RLP978, NB-RLP860, and NB-RLP-1048B were determined by the Du Nouy method utilizing a Kibron Delta-8 multichannel microtensiometer (Kibron Inc., Helsinki, Finland). All samples were prepared in degassed deionized water (Millipore, Etobicoke, ON, CA) at concentrations ranging from 0 to 2.0 mM. All measurements were recorded between 24 and 25° C. and performed in duplicate. The critical micelle concentration of both NB-RLP1006 and NB-RLP978 was 0.20 mM (0.02 wt %). […] The surface activity of NB-RLP1006 was compared to rhamnolipids A and B, which were purified from a commercially available rhamnolipid mixture (R90; AGAE Technologies, Corvallis, OR, USA) by reversed-phase HPLC.

Data set [3] has as its system adult epidermal keratinocytes (HEKa). The experiment in a line: Cytotoxicity testing, alamarBlue, HEKa cells. It is filed as cell-based, human. To be noted: 24 h treatment; for HEKa (MIC90): 90% of growth inhibition; for IC50: Homo sapiens, HEKa. On the procedure:
(§1) To evaluate the safety profile of the glycolipopeptides, cytotoxicity testing was conducted against two normal human cell lines, BJ fibroblast cells ATCC CRL-2522 and adult epidermal keratinocytes (HEKa; Life Technologies, Carlsbad, CA, USA). […] Life Technologies, Carlsbad, CA, USA) and 50 μg/mL gentamicin (Sigma-Aldrich, St. Louis, MO, USA). Cells were cultured in […]^2 cell culture flasks and incubated at 37° C. in a humidified atmosphere of 5% CO2. For BJ fibroblasts culture media was refreshed every two to three days and cells were not allowed to exceed 80% confluence. […] At 80% confluence, the cells were counted, diluted to 10,000 cells/well in growth medium lacking antibiotics and 90 μL of cell suspension was transferred into the wells of 96-well treated cell culture plates. The plates were incubated as before to allow cells to adhere to the plates for 24 h before treatment. DMSO was used as the vehicle at a final concentration of 1%. […] The fibroblasts and HEKa cells were incubated as previously described for 24 h. All samples were tested in triplicate. […] AlamarBlue (Life Technologies, Carlsbad, CA, USA) was added to each well 24 h after treatment (10% v/v). Fluorescence (560/12 excitation, 590 nm emission) was monitored using a Varioskan Flash Multimode plate reader both at time zero and 4 h after the addition of alamarBlue. After subtraction of fluorescence at time zero from 4 h readings the percentage of cell viability relative to vehicle control wells was calculated.
(In general: The colour change of resazurin is a common sign of viable cells or microbes.)

For data set [4], the system named is BJ fibroblast cells ATCC CRL-2522. The experiment in a line: Cytotoxicity testing, alamarBlue, BJ fibroblasts. As to conditions: 24 h treatment; for BJ (MIC90): 90% of growth inhibition; for IC50: Homo sapiens, Fibroblast. It is filed as cell-based, human. On the procedure:
as §1

The nature of data set [5]: Emulsification activity assay (emulsification index E24, kerosene). The data set is classed as physicochemical. As to the method: V. paradoxus RKNM-096 was identified as a biosurfactant producer in a screen aimed at identifying bacterial producers of biosurfactants with emulsifying properties. The assay utilized to identify bacterial producers of biosurfactants was the emulsification activity assay. In this assay cultures were grown in 10 mL of liquid medium in 25 mm×150 mm glass tubes at 30° C. with shaking at 200 rpm for 5 days. After 5 days, the cells were removed by centrifugation and 3.5 mL of cell free culture broth was mixed with 3.5 mL of kerosene in a 13 mm×100 mm test tube with a screw cap tube. The tubes were vortexed for two minutes and then allowed to stand overnight at room temperature after which the height of the emulsion (hemuls) and the total height (htotal) of the liquid in the tube were measured. The emulsification index (E24) was calculated using the equation E24=hemuls/htotal×100%.
(§2) The emulsifying properties of NB-RLP1006 were determined using the emulsification index as described above. […] The emulsification of NB-RLP1006 is pH-dependent with E24 values of 8, 38, and 31% at pH 3, 6, and 8, respectively. The type of emulsion formed by NB-RLP1006 (e.g. oil-in-water or water-in-oil) was determined using the drop dilution test. An emulsion was formed by vigorously mixing a 1 mg/mL solution of RLP1006 in deionized water with an equal volume of kerosene for 1 min. A portion (20 μL) of the emulsion was transferred to 0.5 mL of deionized water and 0.5 mL of kerosene and dilution of the emulsion in each liquid was monitored.

Data set [6] can be described thus: Drop dilution test for type of emulsion. As to conditions: 1 mg/mL in deionized water with equal volume of kerosene. The data set is classed as physicochemical. On the procedure: as §2
Data set [7] is described as follows: Characteristic curvature (Cc) by HLD-NAC model, electrolyte scan with SDHS/toluene. The data set is classed as physicochemical. As to conditions: NB-RLP1006/SDHS mixtures, toluene oil phase, NaCl 0 to 6.0% (w/v). On the procedure:
The characteristic curvature (Cc) of NB-RLP1006 was determined using the hydrophilic-lipophilic difference-net average curvature (HLD-NAC) model to calculate the shift in chemical potential when NB-RLP1006 is transferred from the oil to the aqueous phase as a function of salinity by the following general equation: HLD=F(S)−k×EACN+F(A)−∝×ΔT+Cc where F(S) is a function of salinity, k is a coefficient equal to 0.17, EACN (effective alkane carbon number) is the number of carbons in the alkane oil phase, α is a coefficient dependent on the type of surfactant (ionic, ethoxylates, etc), and ΔT is the effect of temperature. Four mixtures of NB-RLP1006 and sodium dihexyl sulfosuccinate (SDHS) were prepared with a total surfactant concentration of 1.8 mg/mL using the following NB-RLP1006/SDHS ratios: 0, 12, 24, and 40 wt % NB-RLP1006. An electrolyte scan was performed for each mixture by varying the NaCl concentration from 0 to 6.0% (w/v). Each mixture was added to an equal volume of toluene, which constituted the oil phase, and shaken vigorously. […] A plot of the NB-RLP1006/SDHS molar ratios versus S* was generated and Cc was calculated from the line of best fit. The Cc value for NB-RLP1006 was determined to be +5.2, a value that reflects the hydrophobic nature of this biosurfactant.

With `CCCCCCCC(CC(=O)NC(CO)C(=O)NC(CO)CC(C)C)OC(=O)CC(CCCCCCC)OC(=O)CC(CCCCCCC)OC1OC(C)C(O)C(O)C1O` (stereo not drawn) [NB-RLP860], in data set [1], the aqueous solubility result is “poor aqueous solubility”. The CMC in data set [2] came out at 0.07 wt %; in data set [2] (duplicate), 0.85 mM. The “Minimum Surface Tension” value in data set [2] was 36.2 mN/m. For the same compound, the “HEKa (MIC90)” value in data set [3] is 128 µg/mL. The results for the concentration for half-maximal inhibition (IC50) in data set [3] (error is standard deviation) and in data set [4] (error is standard deviation) were 15.5 ± 1.6 µg/mL (≈ 18 µM) and 16.3 ± 0.3 µg/mL (≈ 18.9 µM), respectively. The “BJ (MIC90)” value in data set [4] was 32 µg/mL.

As for `CCCC(CC(=O)NC(CO)C(=O)NC(CO)CC(C)C)OC(=O)CC(CCC)OC(=O)CC(CCC)OC1OC(C)C(O)C(OC2OC(C)C(O)C(O)C2O)C1O` (stereo not drawn) [NB-RLP978], in data set [2], the CMC is 0.02 wt % and the “Minimum Surface Tension” value is on record as 35.5 mN/m. The compound further yielded a CMC in data set [2] (duplicate) of 0.20 mM.

Turning to `CCCCCCCC(CC(=O)NC(CO)C(=O)NC(CO)CC(C)C)OC(=O)CC(CCCCCCC)OC(=O)CC(CCCCCCC)OC1OC(C)C(O)C(OC2OC(C)C(O)C(O)C2O)C1O` (stereo not drawn) [NB-RLP1006], the “emulsification index (E24)” value in data set [5] (1 mg/mL in deionized water) worked out at 53%; in data set [5] (pH 3), 8%; in data set [5] (pH 6), 38%; in data set [5] (pH 8) it was 31%. For the same compound, the results for the CMC in data set [2] and in data set [2] (duplicate) were 0.02 wt % and 0.20 mM, respectively. The “Minimum Surface Tension” value in data set [2] was determined as 35.5 mN/m. Also, the “HEKa (MIC90)” value in data set [3] lay in the range of 64 to 128 µg/mL. Further, the concentration for half-maximal inhibition (IC50) in data set [3] (error is standard deviation) worked out at 15.5 ± 1.7 µg/mL (≈ 15.4 µM); in data set [4] (error is standard deviation), 19.5 ± 2.4 µg/mL (≈ 19.4 µM). Also, the “type of emulsion formed” value in data set [6] is “oil-in-water (o/w) and o/w”. Moreover, in data set [4], the “BJ (MIC90)” value came out at 32 µg/mL. Besides, the “characteristic curvature (Cc)” value in data set [7] was “+5.2”.

With `CCCCCCCC(CC(=O)NC(CO)C(=O)NC(CO)CC(C)C)OC(=O)CC(CCCCCCC)OC(=O)CC(CCCCCCC)OC1OC(C)C(O)C(OC2OC(C)C(O)C(OC(C)=O)C2O)C1O` (stereo not drawn) [NB-RLP1048B], the aqueous solubility entry in data set [1] was “poor aqueous solubility”. The CMC is reported as 0.09 wt % in data set [2] and 0.85 mM in data set [2] (duplicate). Besides, the “Minimum Surface Tension” value in data set [2] was 36.9 mN/m. The “HEKa (MIC90)” value in data set [3] lay within 64 to 128 µg/mL. Besides, the IC50 in data set [3] (error is standard deviation) turned out to be 19.3 ± 4 µg/mL (≈ 18.4 µM); in data set [4] (error is standard deviation), 18.7 ± 1.6 µg/mL (≈ 17.8 µM). For the same compound, the “BJ (MIC90)” value in data set [4] worked out at 32 µg/mL.

For the compound Zinc pyrithione [reference compound], the “HEKa (MIC90)” value in data set [3] was 1 µg/mL. Also, the “HEKa (IC50)” value in data set [3] (error is standard deviation) is 0.20 ± 0.001 µg/mL. In data set [4], the “BJ (MIC90)” value was determined as 4 µg/mL. Moreover, the “BJ (IC50)” value in data set [4] (error is standard deviation) worked out at 2.2 ± 0.3 µg/mL.
